Reference: US20030162759A1, “Aldosterone blocker therapy to prevent or treat inflammation-related disorders” (priority 2000, published 2003)
Where “and” joins values, the source holds several entries; their conditions need not be identical. Equal entries are not always repeated.

Experiments:
[1] = system: aldosterone + salt treated rats; test: Assay C further aldosterone infusion study: radiotelemetrized systolic blood pressure; type: in vivo, rat
Description: Assay C: Further in vivo Aldosterone Infusion Study The procedure of Assay B was expanded upon in a further study. […] Myocardial tissue from animals in each treatment group was examined after 7, 14, or 30 days of treatment. […] Lesions were preceded by the expression and progressive upregulation of proinflammatory molecules. […] Male Sprague-Dawley rats, weighing 230 to 250 g, (Harlan Sprague-Dawley Industries, Indianapolis, Ind.) were housed in a room 12-hours light/12-hours dark daily cycle at an ambient temperature of 22±1° C. (n=96). Animals were allowed one week to adjust after arrival and had free access to TEKLAD 22/5 rodent diet (Harlan TEKLAD, Madison, Wis.) and tap water until the initiation of the experiment. Prior to surgery the animals were individually weighed and placed in one of the following groups: […] Potassium chloride supplementation was added to the saline solution in order to prevent the potential hypokalemia associated with aldosterone excess. […] Louis, Mo.) was inserted subcutaneously at the nape of the neck. Aldosterone was administered at a dose of […]. […] Animals were sacrificed from each group (n=8-13) after 7, 14, or 30 days of treatment. Animals to be sacrificed after 7 or 14 days of treatment were uninephrectomized and implanted with an Alzet minipump. Animals treated for 30 days were uninephrectomized, fitted for Alzet minipumps, and implanted with radio telemetry units (model#TA11PA-C40, Data Sciences Inc., St. Paul, Minn.) according to the following procedure. […] The surgery site was clipped, scrubbed with nolvasan, and sprayed with betadine. A rostral-caudal incision was made through the skin from the base of the rib cage to the pubic region using a #11 scalpel blade. A second incision was made through the muscles of the abdominal wall to expose the peritoneal cavity. […] Organs were carefully displaced with tissue retractors in order to expose the abdominal aorta. A 1.5 cm segment just rostral to the bifurcation of the abdominal aorta into the iliac arteries was cleared of excessive connective tissue and 4-0 silk was used to make an anchor adjacent to the aorta. A microvascular clip was then placed at both ends of the cleaned region to stop excessive blood flow. Using a bent, 21 gauge needle, the abdominal aorta was penetrated. The cannula of the radio telemetry unit was inserted and stabilized in the aorta using the 4-0 silk anchor. Organs were repositioned and the telemetry unit was placed over the organs. Using a non-interrupted suture pattern with 4-0 silk, the abdominal wall was closed, and the skin was subsequently closed using a 4-0 silk in an interrupted suture pattern. […] Post-operative care included monitoring the animals on a heating pad during recovery from anesthesia until sternal recumbency was reestablished. Radiotelemetrized arterial blood pressure was calculated with the […] Version 1.1-Gold software (Data Sciences International, St. Paul, Minn.). Data points were collected over a 24 hour period with the collection rate set for a 10 second reading every 5 min for each animal. The 24 hour period used was from 6:00 a.m. to 6:00 a.m.

Collagen I = test: Assay C: Collagen I mRNA in left ventricle (TaqMan); type: in vivo, rat; conditions: for Collagen type-I message: 30 days, compared to vehicle+salt controls; for Collagen-I mRNA: individual rats
Method: The procedure of Assay B was expanded upon in a further study. […] Myocardial tissue from animals in each treatment group was examined after 7, 14, or 30 days of treatment.
Potassium chloride supplementation was added to the saline solution in order to prevent the potential hypokalemia associated with aldosterone excess.
At the time of the surgery, an Alzet 2002 osmotic minipump (Alza Corp., Palo Alto, Calif.) containing either vehicle (9% ethanol/87% propylene glycol/4% dH2O) or 1.0 mg/mL d-aldosterone (Sigma Chemical, St. Louis, Mo.) was inserted subcutaneously at the nape of the neck. Aldosterone was administered at a dose of 0.75 g/hour. […] Animals were sacrificed from each group (n=8-13) after 7, 14, or 30 days of treatment.
Following exsanguination, hearts and kidneys were isolated, removed, rinsed in cold phosphate-buffered saline, and blotted dry. Kidneys were immediately bifurcated through the long axis with a razor blade and placed in 10% neutral buffered formalin (NBF, Richard-Allen Scientific, Kalamazoo, Mich.). For the hearts, the right ventricle (RV) was cut away from the left ventricle (LV), both ventricles were weighed using a Mettler AE163 balance (Mettler-Toledo, Inc., Hightstown, N.J.), and the RV was placed in 10% NBF. A 2 mm coronal slab of the LV apex was removed and frozen with dry ice/isopentane for analysis of gene expression and the remaining portion of the LV was placed in 10% NBF for fixation. Final wet trimming was completed after 3-4 days fixation where a second 2 mm coronal slab was removed for hydroxyproline analysis and a third 2 mm slab was removed from the equatorial region for histology.
The fluorogenic 5′-nuclease assay (TaqMan PCR) using Applied Biosystems' 7700 Sequence Detection System (Applied Biosystems, Foster City, Calif.) allowed for real time detection/quantitation of a specific gene by monitoring the increase in fluorescence of a gene-specific, dye-labeled oligonucleotide probe. Probes for target and reference genes were labeled at the 5′-end with a 6-carboxyfluorescein (6FAM) reporter dye and at the 3′-end with a 6-carboxy-N,N,N′,N′-tetramethylrhodamine (TAMRA) quencher dye. When the probe was annealed to the target gene, fluorescence of 6FAM was prevented by the close proximity of TAMRA. The exonuclease activity of Taq polymerase released the dyes from the oligonucleotide probe by displacing the probe from the target sequence resulting in fluorescence excitation in direct proportion to the amount of target message present. Data analysis was performed using the Sequence Detection System software from Applied Biosystems.
Primers and probes were designed using Oligo Primer Analysis Software, Version 5.0 (National Biosciences Inc. (NBI)-Wojciech Rychlik, Cascade, Colo.). Primers were synthesized by Life Technologies (Grand Island, N.Y.) and probes were synthesized by Applied Biosystems. Primer/probe sets were designed from known sequences of rat genes to be analyzed. All target gene values were normalized to a reference gene, constitutively expressed cyclophilin. Primer/probe sets sequences can be found in Table 8
RNA was extracted from frozen (−70° C.) left ventricle (LV) tissue (approximately 10-20 mg) using 1.5 mL RNA-STAT 60 according to manufacturer's instructions (Leedo Medical Laboratories, Inc., Houston, Tex.). Briefly, tissues were homogenized using a tissue homogenizer equipped with a 5 mm probe (Ultra-Turrax T8 Homogenizer, IKA Works, Inc. Wilmington, N.C.). Following homogenization, an equal volume of molecular grade chloroform (Sigma Chemical Co., St. Louis, Mo.) was incubated with periodic mixing for 10 min at room temperature. Samples were centrifuged at 12,000 g for 10 min and RNA was precipitated from the top layer by adding an equal volume of molecular grade isopropanol (Sigma Chemical Co.) followed by an overnight incubation at −80° C.

C[C@]12CCC(=O)C=C1CC[C@@H]1[C@@H]2[C@@H](O)C[C@]2(C=O)[C@@H](C(=O)CO)CC[C@@H]12 [aldosterone]
Systolic Blood Pressure ([1]; Day 3, mean ± SEM of values every 5 min over 24-hour period): 132 ± 6 mmHg | Systolic Blood Pressure ([1]; Day 5, mean ± SEM of values every 5 min over 24-hour period): 137 ± 4 mmHg | Systolic Blood Pressure ([1]; Day 6, mean ± SEM of values every 5 min over 24-hour period): 148 ± 5 mmHg | Systolic Blood Pressure ([1]; Day 7, mean ± SEM of values every 5 min over 24-hour period): 155 ± 5 mmHg | Systolic Blood Pressure ([1]; Day 8, mean ± SEM of values every 5 min over 24-hour period): 156 ± 4 mmHg | Systolic Blood Pressure ([1]; Day 9, mean ± SEM of values every 5 min over 24-hour period): 164 ± 5 mmHg | Systolic Blood Pressure ([1]; Day 11, mean ± SEM of values every 5 min over 24-hour period): 171 ± 6 mmHg | Systolic Blood Pressure ([1]; Day 12, mean ± SEM of values every 5 min over 24-hour period): 178 ± 6 mmHg | Systolic Blood Pressure ([1]; Day 13, mean ± SEM of values every 5 min over 24-hour period): 182 ± 6 mmHg | Systolic Blood Pressure ([1]; Day 15, mean ± SEM of values every 5 min over 24-hour period): 181 ± 5 mmHg | Systolic Blood Pressure ([1]; Day 16, mean ± SEM of values every 5 min over 24-hour period): 187 ± 6 mmHg | Systolic Blood Pressure ([1]; Day 17, mean ± SEM of values every 5 min over 24-hour period): 195 ± 7 mmHg | Systolic Blood Pressure ([1]; Day 18, mean ± SEM of values every 5 min over 24-hour period): 196 ± 6 mmHg | Systolic Blood Pressure ([1]; Day 19, mean ± SEM of values every 5 min over 24-hour period): 200 ± 6 mmHg | Systolic Blood Pressure ([1]; Day 20, mean ± SEM of values every 5 min over 24-hour period): 203 ± 5 mmHg | Systolic Blood Pressure ([1]; Day 21, mean ± SEM of values every 5 min over 24-hour period): 208 ± 4 mmHg | Systolic Blood Pressure ([1]; Day 22, mean ± SEM of values every 5 min over 24-hour period): 209 ± 4 mmHg | Systolic Blood Pressure ([1]; Day 23, mean ± SEM of values every 5 min over 24-hour period): 208 ± 4 mmHg | Systolic Blood Pressure ([1]; Day 24, mean ± SEM of values every 5 min over 24-hour period): 210 ± 3 mmHg | Systolic Blood Pressure ([1]; Day 25, mean ± SEM of values every 5 min over 24-hour period): 210 ± 4 mmHg | Systolic Blood Pressure ([1]; Day 26, mean ± SEM of values every 5 min over 24-hour period): 210 ± 3 mmHg | Systolic Blood Pressure ([1]; uninephrectomized Sprague-Dawley rats, 1% NaCl-0.3% KCl, aldosterone infusion, eplerenone 100 mg/kg/day, up to 30 days, listed as Aldosterone+salt): progressive increase in blood pressure with time | Systolic Blood Pressure ([1]; uninephrectomized Sprague-Dawley rats, 1% NaCl-0.3% KCl, aldosterone infusion, eplerenone 100 mg/kg/day, up to 30 days, listed as Aldosterone/salt): induced severe hypertension | Collagen type-I message (Collagen I): modest increase | Collagen-I mRNA (Collagen I; Table 9.14, 7-day protocol, listed as Aldosterone + salt): 0.84 AU and 1.40 AU | Collagen-I mRNA (Collagen I; 14 days of treatment, relative to cyclophilin expression, listed as Aldosterone + salt): 0.25 AU and 1.00 AU and 1.20 AU and 1.70 AU and 0.43 AU | Collagen-I mRNA (Collagen I; 30 days of treatment, relative to cyclophilin expression, listed as Aldosterone + salt): 2.20 AU | Collagen-I (collagen type I mRNA) (Collagen I; mean ± SEM after 14 days of treatment, relative to cyclophilin expression): 1.33 ± 0.24 AU

COC(=O)[C@@H]1CC2=CC(=O)CC[C@]2(C)[C@@]23O[C@@H]2C[C@@]2(C)[C@@H](CC[C@@]24CCC(=O)O4)[C@H]13 [eplerenone, Pregn-4-ene-7,21-dicarboxylic acid, 9,11-epoxy-17-hydroxy-3-oxo-, γ-lactone, methyl ester, (7α, 11α, 17β) -]
Systolic Blood Pressure ([1]; uninephrectomized Sprague-Dawley rats, 1% NaCl-0.3% KCl, aldosterone infusion, eplerenone 100 mg/kg/day, up to 30 days): significantly reduced | Systolic Blood Pressure ([1]; uninephrectomized Sprague-Dawley rats, 1% NaCl-0.3% KCl, aldosterone infusion, eplerenone 100 mg/kg/day, up to 30 days, listed as eplerenone+aldosterone+salt): significantly reduced at days 8-30 | Collagen type-I message (Collagen I): modest increase | Collagen-I mRNA, Mean (Collagen I; group mean, 30 days of treatment): 2.53 AU | Collagen-I mRNA (Collagen I; 14 days of treatment, relative to cyclophilin expression, listed as Eplerenone + aldosterone + salt): 0.90 AU and 1.14 AU and 0.50 AU | Collagen-I mRNA (Collagen I; 30 days of treatment, relative to cyclophilin expression, listed as Eplerenone + aldosterone + salt): 2.98 AU and 2.90 AU | Collagen-I (collagen type I mRNA) (Collagen I; mean ± SEM after 7 days of treatment, relative to cyclophilin expression): 0.85 ± 0.15 AU
